Reference: patent US10913983B2, “Sensitivity markers and uses for CDK7 inhibitors in breast cancers” (UNIVERSITY OF SOUTH CAROLINA, priority 2017, dated 2021)
Like-named read-outs stand apart in the source and are kept apart here.

How the values were obtained:
[1] = test system: BT474; assay: Cell proliferation MTT assay; assay type: cell-based
Procedure: (§1) Cells were seeded in 12-well plates at densities ranging from 10000-30000 cells/well and after 24 hours cells were treated with 10, 40 and 100 nM THZ1 in triplicate. After 7 days the cells were imaged using Zeiss Axiovert 200 microscope using a 20× objective lens. Additionally, cells were plated in 96-well plates at a density of 2000 cells/well and after 24 hours treated with 0-10 μM THZ1. After 2 and 7 days the growth of the cells was measured by MTT assay.
(§2) All results were presented as mean±standard deviation of 4-8 parallel assessments. Similar results were obtained from a minimum of two independent experiments. […] Densitometry was performed on duplicate immunoblots using ImageLab software (Biorad) and normalized to tubulin loading controls and then correlated with the THZ1 IC50 values of each cell line. Statistical analyses were performed using SPSS 18.0 (SPSS Inc). Bi-variant scatter graphs and Spearman rank analyses were performed to evaluate associations between protein levels, mRNA and response to inhibition. IC50 values were calculated for MTT assays using CompuSyn software.

[2] = test system: BT549; assay: Cell proliferation MTT assay; assay type: cell-based
Procedure: as §1, §2

[3] = test system: HCC1937; assay: Cell proliferation MTT assay; assay type: cell-based
Procedure: as §1, §2

[4] = test system: HCC1954; assay: Cell proliferation MTT assay; assay type: cell-based
Procedure: as §1, §2

[5] = test system: JIMT-1; assay: Cell proliferation MTT assay; assay type: cell-based; settings: for IC50: MTT
Procedure: as §1, §2

[6] = test system: MCF7; assay: Cell proliferation MTT assay; assay type: cell-based
Procedure: as §1, §2

[7] = test system: MDA-MB-231; assay: Cell proliferation MTT assay; assay type: cell-based
Procedure: as §1, §2

[8] = test system: MDA-MB-361; assay: Cell proliferation MTT assay; assay type: cell-based
Procedure: as §1, §2

[9] = test system: MDA-MB-453; assay: Cell proliferation MTT assay; assay type: cell-based
Procedure: as §1, §2

[10] = test system: SKBR3; assay: Cell proliferation MTT assay; assay type: cell-based
Procedure: as §1, §2

[11] = test system: T47D; assay: Cell proliferation MTT assay; assay type: cell-based
Procedure: as §1, §2

[12] = test system: ZR-75-1; assay: Cell proliferation MTT assay; assay type: cell-based
Procedure: as §1, §2

[13] = test system: breast cancer cell lines (TNBC, ER+HER2−, ER+HER2+ and ER−/HER2+); assay: Cell proliferation, 12-well plates, bright-field imaging; assay type: cell-based; settings: 100 nM, seven days of treatment
Procedure: as §1
The effects of different concentrations of THZ1 on breast cancer cell lines was examined. Cell lines included TNBC, ER+HER2−, ER+HER2+ and ER−/HER2+ and effects were studied over seven days of treatment.

[14] = test system: panel of breast cancer cell lines; assay: Cell proliferation MTT assay, cell line panel; assay type: cell-based
Procedure: as §1, §2
To investigate the effect of CDK7 inhibition in a time and dose dependent manner, an extended panel of 11 breast cancer cell lines were screened for response to THZ1 after 2 and 7 days of treatment.

[15] = test system: MDA-MB-231 cells; assay: Cell cycle analysis; assay type: cell-based; settings: MDA-MB-231, 100 and 250 nM
Procedure: (§3) MDA-MB-231 and T47D cells were seeded into 6-well plates and allow to grow until 60% confluent. The cells were then washed with PBS and the media was replaced with serum-free media overnight. After serum starvation the cells were treated with serum containing media in the presence or absence of 100 and 250 nM THZ1 for 24 and 48 hours. The cells were collected, fixed in ethanol overnight and cell cycle distribution was measured using DAPI on the LSR2 (Beckman-Dickinson).

[16] = test system: T47D cells; assay: Cell cycle analysis; assay type: cell-based; settings: 100 and 250 nM, 24 or 48 hours
Procedure: as §3

[17] = test system: MDA-MB-468 cells; settings: fold change in gene expression, 250 nM THZ1; cited from earlier work
[18] = test system: ZR751; settings: fold change in gene expression, THZ1; cited from earlier work

CN(C)C/C=C/C(=O)Nc1ccc(C(=O)Nc2cccc(Nc3ncc(Cl)c(-c4c[nH]c5ccccc45)n3)c2)cc1 [THZ1]
IC50 ([1]; BT474, 2 days, read-out: 2 day IC50): 490 nM | IC50 ([1]; BT474, 7 days, read-out: 7 day IC50): 27 nM | IC50 ([2]; BT549, 2 days, read-out: 2 day IC50): 17 nM | IC50 ([2]; BT549, 7 days, read-out: 7 day IC50): 8 nM | IC50 ([3]; HCC1937, 2 days, read-out: 2 day IC50): 94 nM | IC50 ([3]; HCC1937, 7 days, read-out: 7 day IC50): 24 nM | IC50 ([4]; HCC1954, 2 days, read-out: 2 day IC50): 158 nM | IC50 ([4]; HCC1954, 7 days, read-out: 7 day IC50): 36 nM | IC50 ([5]; JIMT-1, 2 days, read-out: 2 day IC50): 289 nM | IC50 ([5]; JIMT-1, 7 days, read-out: 7 day IC50): 87 nM | response to low nanomolar concentrations ([5]; JIMT-1, <100 nM, 7 days of treatment): lack of significant response | IC50 ([6]; MCF7, 2 days, read-out: 2 day IC50): 32 nM | IC50 ([6]; MCF7, 7 days, read-out: 7 day IC50): 59 nM | IC50 ([7]; MDA-MB-231, 2 days, read-out: 2 day IC50): 159 nM | IC50 ([7]; MDA-MB-231, 7 days, read-out: 7 day IC50): 36 nM | IC50 ([8]; MDA-MB-361, 2 days, read-out: 2 day IC50): 133 nM | IC50 ([8]; MDA-MB-361, 7 days, read-out: 7 day IC50): 27 nM | IC50 ([9]; MDA-MB-453, 2 days, read-out: 2 day IC50): 133 nM | IC50 ([9]; MDA-MB-453, 7 days, read-out: 7 day IC50): 12 nM | IC50 ([10]; SKBR3, 2 days, read-out: 2 day IC50): 23 nM | IC50 ([10]; SKBR3, 7 days, read-out: 7 day IC50): 9 nM | IC50 ([11]; 2 days, read-out: 2 day IC50): 89 nM | IC50 ([11]; 7 days, read-out: 7 day IC50): 14 nM | IC50 ([12]; ZR-75-1, 2 days, read-out: 2 day IC50): 286 nM | IC50 ([12]; ZR-75-1, 7 days, read-out: 7 day IC50): 50 nM | growth inhibition [13]: inhibited the growth of all tested cell lines regardless of subtype | difference in sensitivity determined by IC50 ([14]; most sensitive cell line SKBR3 vs least sensitive cell line JIMT-1): 25 fold | IC50 ([14]; two-day treatment, read-out: IC50 values of most cell lines): 100 to 300 nM | cell cycle distribution ([15]; 24 hours): G1 arrest | cell cycle distribution ([15]; 48 hours): increased sub-G1 (apoptotic cell) accumulation | cell cycle distribution [16]: G1 arrest | BAMBI 468 FC [17]: −3.8 | CDKN1B 468 FC [17]: −4.11 | CITED2 468 FC [17]: −4.53 | CYR61 468 FC [17]: −4.82 | DKK1 468 FC [17]: −4.7 | E2F8 468 FC [17]: −4.01 | ELF3 468 FC [17]: −3.88 | FADD 468 FC [17]: −3.93 | FBXO5 468 FC [17]: −4.19 | MARS2 468 FC [17]: −4.04 | MOCS3 468 FC [17]: −3.84 | MYC 468 FC [17]: −4.64 | NEDD9 468 FC [17]: −4.03 | PHLDA1 468 FC [17]: −3.71 | PIM3 468 FC [17]: −4.05 | PLK2 468 FC [17]: −3.99 | TRIB1 468 FC [17]: −3.69 | WEE1 468 FC [17]: −3.69 | ZNF217 468 FC [17]: −3.77 | ZNF627 468 FC [17]: −3.68 | BAMBI ZR751 FC [18]: −3.77 | CDKN1B ZR751 FC [18]: −2.57 | CITED2 ZR751 FC [18]: −2.64 | CYR61 ZR751 FC [18]: −1.81 | DKK1 ZR751 FC [18]: −4.15 | E2F8 ZR751 FC [18]: −4.01 | ELF3 ZR751 FC [18]: −1.65 | FADD ZR751 FC [18]: −4.12 | FBXO5 ZR751 FC [18]: −3.01 | MARS2 ZR751 FC [18]: −3.75 | MOCS3 ZR751 FC [18]: −4.1 | MYC ZR751 FC [18]: −2.98 | NEDD9 ZR751 FC [18]: −2.68 | PHLDA1 ZR751 FC [18]: −2.55 | PIM3 ZR751 FC [18]: −3.96 | PLK2 ZR751 FC [18]: −3.04 | TRIB1 ZR751 FC [18]: −3.54 | WEE1 ZR751 FC [18]: −3.25 | ZNF217 ZR751 FC [18]: −4.13 | ZNF627 ZR751 FC [18]: −3.38
